For eight molecules, IC50 results are on record in BindingDB's records for doi:10.1111/j.1747-0285.2007.00615.x (Ariad Pharmaceuticals, 2008).

pIC50: −log10 of the molar value.

Chain of Proto-oncogene tyrosine-protein kinase Src (P05480 2-535 limits assumed): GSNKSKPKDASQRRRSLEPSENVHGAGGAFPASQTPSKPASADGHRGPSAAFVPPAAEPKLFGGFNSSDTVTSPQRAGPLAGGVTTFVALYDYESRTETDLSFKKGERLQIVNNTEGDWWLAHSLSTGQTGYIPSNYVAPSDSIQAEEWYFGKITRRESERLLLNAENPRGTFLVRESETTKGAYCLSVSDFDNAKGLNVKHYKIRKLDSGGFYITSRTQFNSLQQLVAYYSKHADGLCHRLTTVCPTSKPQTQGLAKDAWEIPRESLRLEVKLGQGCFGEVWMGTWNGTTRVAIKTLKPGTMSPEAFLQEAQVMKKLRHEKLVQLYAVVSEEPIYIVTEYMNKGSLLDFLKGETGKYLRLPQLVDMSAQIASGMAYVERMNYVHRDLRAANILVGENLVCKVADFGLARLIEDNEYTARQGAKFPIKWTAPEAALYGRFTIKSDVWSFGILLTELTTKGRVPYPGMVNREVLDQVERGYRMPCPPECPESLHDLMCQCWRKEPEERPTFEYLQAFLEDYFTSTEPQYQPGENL

This assay has as its target Proto-oncogene tyrosine-protein kinase Src (Mus musculus, UniProt P05480). Nature of the assay: Kinase Assay. The protocol:
2,6,9-Trisubstituted purines were evaluated for their src kinase inhibitory activities using an ELISA assay.
`CCn1cnc2c(Nc3ccc(P(=O)(O)CP(=O)(O)O)cc3)nc(C3CCNCC3)nc21` [2,6,9-Trisubstituted Purine, 4] showed a negative logarithm of the IC50 (pIC50) of 6.18.

In turn, `CCn1cnc2c(Nc3ccc(P(=O)(O)CP(=O)(O)O)cc3)nc(CC3CCNCC3)nc21` [2,6,9-Trisubstituted Purine, 5] had a pIC50 of 5.64. Then `CCn1cnc2c(Nc3ccc(P(=O)(O)CP(=O)(O)O)cc3)nc(CCC3CCNCC3)nc21` [2,6,9-Trisubstituted Purine, 6], with 6.00; and `CCn1cnc2c(Nc3ccc(P(=O)(O)CP(=O)(O)O)cc3)nc(CC3CCCNC3)nc21` (stereo not drawn) [2,6,9-Trisubstituted Purine, 7], with 5.64.

`CCn1cnc2c(Nc3ccc(P(=O)(O)CP(=O)(O)O)cc3)nc(C[C@H]3CC[C@H](N)CC3)nc21` [2,6,9-Trisubstituted Purine, 9] had a negative logarithm of the IC50 (pIC50) of 6.69. The molecule `CCn1cnc2c(Nc3ccc(P(=O)(O)CP(=O)(O)O)cc3)nc(C[C@H]3CC[C@@H](N)CC3)nc21` [2,6,9-Trisubstituted Purine, 10] showed a negative logarithm of the IC50 (pIC50) of 7.00. `CCn1cnc2c(Nc3ccc(P(=O)(O)CP(=O)(O)O)cc3)nc(CCCCN)nc21` [2,6,9-Trisubstituted Purine, 11] had a pIC50 of 5.68.

For the molecule `CCn1cnc2c(Nc3ccccc3)nc([C@H]3CC[C@H](N)CC3)nc21` [2,6,9-Trisubstituted Purine, AP23517], the negative logarithm of the IC50 (pIC50) is 7.14.
